According to article PMC6581923 (Journal of Molecular Neuroscience, 2018):
One block for each molecule: values may come before it.

Key:
[1] = target: T1, PAC1-R (Homo sapiens, UniProt P41586); assay: cAMP accumulation assay in PAC1-CHO cells; type: cell-based; conditions: DMEM, 37 °C, 5-10 min, enzyme immunoassay for cAMP, % of maximal cAMP level with PACAP27, means ± SEM of four experiments, read-out: EC50 (activation of PAC1-R, cAMP accumulation)
T1 construct: expressed in transfected cells; host or cells: PAC1-CHO cells (CHO cells expressing PAC1-R); That they are transfected is inferred from the cell line's name
T1 sequence (P41586 21-468): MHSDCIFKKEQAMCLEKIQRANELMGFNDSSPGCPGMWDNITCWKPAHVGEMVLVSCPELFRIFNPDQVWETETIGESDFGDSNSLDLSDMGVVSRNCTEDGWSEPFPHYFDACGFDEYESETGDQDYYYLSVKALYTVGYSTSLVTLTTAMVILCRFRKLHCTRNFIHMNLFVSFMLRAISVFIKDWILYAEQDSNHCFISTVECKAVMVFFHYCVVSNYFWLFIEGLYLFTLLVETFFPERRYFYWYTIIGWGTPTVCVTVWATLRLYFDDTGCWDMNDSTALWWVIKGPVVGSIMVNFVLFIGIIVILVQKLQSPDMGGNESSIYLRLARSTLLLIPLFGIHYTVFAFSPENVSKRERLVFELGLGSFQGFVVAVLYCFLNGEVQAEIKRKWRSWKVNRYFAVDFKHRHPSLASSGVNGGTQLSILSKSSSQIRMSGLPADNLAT
Description: PAC1-CHO cells cultured in Dulbecco’s Modified Eagle’s Medium (DMEM) at 37 °C were scraped off the surface with rubber policeman, washed twice with PBS and the density of the cells was adjusted to 2 × 10^6 /mL. Peptides were added to 500 uL cells suspension with the corresponding varying working concentrations of the detected factor. After incubation at 37 °C for 5-10 min cells were harvested and the lysates were subjected to cAMP quantification using the enzyme immunoassay kit for cAMP (Biyuntian, Shanghai, China), following the manufacturer’s instructions. Protein concentration of each sample was determined using BCA assay, and the cAMP level of each sample was calculated following the formula: cAMP level (pmol/mg protein) = cAMP concentration (pmol/mL)/protein concentration (mg/mL). The cAMP level in each sample was plotted as the percentage (%) of the maximal cAMP level in cells treated with PACAP27 versus the logarithmic value of the peptide concentrations. All experiments were run with at least four parallel samples and were repeated three times.
The data are means ± SEM of four experiments

[2] = ref Steingart et al. [2000]; cited from earlier work
Source text: VIP is an important neuromodulator along the visual transmission pathways, not only in the retina, but all the way to the cortex where it influences visual information processing (Galletti and Fattori [2018]; Wilson and Glickfeld [2014]). Regarding retinoprotection, a few studies i ...

- EC50 [1]: 30.1 ± 4.1 nM
Molecule: CC[C@H](C)[C@H](NC(=O)[C@H](CO)NC(=O)[C@H](CC(N)=O)NC(=O)[C@H](CC(C)C)NC(=O)[C@H](Cc1ccc(O)cc1)NC(=O)[C@H](CCCCN)NC(=O)[C@H](CCCCN)NC(=O)[C@@H](NC(=O)[C@H](C)NC(=O)[C@H](CCSC)NC(=O)[C@H](CCC(N)=O)NC(=O)[C@H](CCCCN)NC(=O)[C@H](CCCN=C(N)N)NC(=O)[C@H](CC(C)C)NC(=O)[C@H](CCCN=C(N)N)NC(=O)[C@@H](NC(=O)[C@H](Cc1ccc(O)cc1)NC(=O)[C@H](CC(N)=O)NC(=O)[C@H](CC(=O)O)NC(=O)[C@@H](NC(=O)[C@H](Cc1ccccc1)NC(=O)[C@@H](NC(=O)[C@H](C)NC(=O)[C@H](CC(=O)O)NC(=O)[C@H](CO)NC(=O)[C@@H](N)Cc1c[nH]cn1)C(C)C)[C@@H](C)O)[C@@H](C)O)C(C)C)C(=O)N[C@@H](CC(C)C)C(=O)N[C@@H](CC(N)=O)C(N)=O [VIP, vasoactive intestinal peptide, reference compound]

B1: activity-dependent neurotrophic protein (protein, UniProt Q9H2P0 1-1102, looked up)
Activity-dependent …: MFQLPVNNLGSLRKARKTVKKILSDIGLEYCKEHIEDFKQFEPNDFYLKNTTWEDVGLWDPSLTKNQDYRTKPFCCSACPFSSKFFSAYKSHFRNVHSEDFENRILLNCPYCTFNADKKTLETHIKIFHAPNASAPSSSLSTFKDKNKNDGLKPKQADSVEQAVYYCKKCTYRDPLYEIVRKHIYREHFQHVAAPYIAKAGEKSLNGAVPLGSNAREESSIHCKRCLFMPKSYEALVQHVIEDHERIGYQVTAMIGHTNVVVPRSKPLMLIAPKPQDKKSMGLPPRIGSLASGNVRSLPSQQMVNRLSIPKPNLNSTGVNMMSSVHLQQNNYGVKSVGQGYSVGQSMRLGLGGNAPVSIPQQSQSVKQLLPSGNGRSYGLGSEQRSQAPARYSLQSANASSLSSGQLKSPSLSQSQASRVLGQSSSKPAAAATGPPPGNTSSTQKWKICTICNELFPENVYSVHFEKEHKAEKVPAVANYIMKIHNFTSKCLYCNRYLPTDTLLNHMLIHGLSCPYCRSTFNDVEKMAAHMRMVHIDEEMGPKTDSTLSFDLTLQQGSHTNIHLLVTTYNLRDAPAESVAYHAQNNPPVPPKPQPKVQEKADIPVKSSPQAAVPYKKDVGKTLCPLCFSILKGPISDALAHHLRERHQVIQTVHPVEKKLTYKCIHCLGVYTSNMTASTITLHLVHCRGVGKTQNGQDKTNAPSRLNQSPSLAPVKRTYEQMEFPLLKKRKLDDDSDSPSFFEEKPEEPVVLALDPKGHEDDSYEARKSFLTKYFNKQPYPTRREIEKLAASLWLWKSDIASHFSNKRKKCVRDCEKYKPGVLLGFNMKELNKVKHEMDFDAEWLFENHDEKDSRVNASKTADKKLNLGKEDDSSSDSFENLEEESNESGSPFDPVFEVEPKISNDNPEEHVLKVIPEDASESEEKLDQKEDGSKYETIHLTEEPTKLMHNASDSEVDQDDVVEWKDGASPSESGPGSQQVSDFEDNTCEMKPGTWSDESSQSEDARSSKPAAKKKATMQGDREQLKWKNSSYGKVEGFWSKDQSQWKNASENDERLSNPQIEWQNSTIDSEDGEQFDNMTDGVAEPMHGSLAGVKLSSQQA
- Protection against a variety of stress factors [2]: strong protection against a variety of stress factors
